The record followed here is paper PMC6421026, “Interaction of Anticancer Drugs with Human Organic Anion Transporter hOAT4” (Journal of Oncology, 2019).

Experiment [1] has as its target T1, human organic anion transporter 4 (hOAT4) (Homo sapiens, UniProt Q9NSA0).
T1 construct: gene SLC22A11
T1 sequence (Q9NSA0 1-550): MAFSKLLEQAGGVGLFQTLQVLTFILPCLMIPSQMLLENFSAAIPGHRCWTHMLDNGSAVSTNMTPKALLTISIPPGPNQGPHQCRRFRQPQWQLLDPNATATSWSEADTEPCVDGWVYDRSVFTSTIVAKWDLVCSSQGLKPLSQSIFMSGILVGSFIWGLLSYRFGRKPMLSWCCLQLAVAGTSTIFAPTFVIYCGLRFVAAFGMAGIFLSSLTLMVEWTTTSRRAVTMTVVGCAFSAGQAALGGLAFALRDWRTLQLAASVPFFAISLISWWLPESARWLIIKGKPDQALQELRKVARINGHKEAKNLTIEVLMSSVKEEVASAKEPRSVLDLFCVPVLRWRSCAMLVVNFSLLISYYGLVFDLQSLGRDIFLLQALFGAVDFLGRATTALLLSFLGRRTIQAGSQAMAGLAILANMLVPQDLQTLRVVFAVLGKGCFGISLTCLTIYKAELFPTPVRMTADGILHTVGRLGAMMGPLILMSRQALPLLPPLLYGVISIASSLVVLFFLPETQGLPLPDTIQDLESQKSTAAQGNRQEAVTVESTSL
Briefly: inhibition of [3H]-estrone sulfate uptake in stable hOAT4-expressing COS-7 cells, Dixon plot (IC50 […]); trans-inhibition. It is filed as cell-based.

Experiment [2] deals with T1, human organic anion transporter 4 (hOAT4). Briefly: inhibition of [3H]-estrone sulfate uptake in stable hOAT4-expressing COS-7 cells, Dixon plot (IC50 […]). The format is cell-based.

SMILES strings stand for the structures. Structures can show the parent of a compound that is named as a salt.

As a reminder, the Ki is the equilibrium dissociation constant of an inhibitor or competing ligand from its target. Low values mean tighter binding, high ones weaker binding. `CC(C)(C)c1nc(-c2cccc(NS(=O)(=O)c3c(F)cccc3F)c2F)c(-c2ccnc(N)n2)s1` [Dab, dabrafenib mesylate] had a Ki in experiment [1] of 4.26 µM.

`COc1cccc2c1C(=O)c1c(O)c3c(c(O)c1C2=O)C[C@@](O)(C(=O)CO)C[C@@H]3O[C@H]1C[C@H](N)[C@@H](O)[C@H](C)O1` [epirubicin hydrochloride]: the Ki in experiment [2] amounted to 3 µM.
